Assay results published in paper PMC9635472, “Design, synthesis, and biological evaluation of novel ciprofloxacin derivatives as potential anticancer agents targeting topoisomerase II enzyme” (Journal of Enzyme Inhibition and Medicinal Chemistry, 2022).
Values joined by “and” are separate entries in the source; they are usually repeats but may differ in a detail not shown here. Equal entries are not always repeated.

Experiments:
Format in all cases: cell-based, human
PC-3 cells = assay: Cell cycle analysis (propidium iodide flow cytometry), PC-3 cells; details: for phase of cell cycle arrest: PC-3 cells at IC50 concentrations
Description: The cell cycle was done using a propidium iodide flow cytometry kit (Abcam, ab139418) according to the manufacturer’s instructions. […] After treatment, the cells were washed twice with ice-cold phosphate buffer saline, then centrifuged and fixed using ice-cold 66% (v/v) ethanol, washed with phosphate buffer saline re-suspended with 0.10 mg/ml, and stained with 200 µl propidium iodide. Cells were analysed by flow cytometry. The cell cycle distributions were calculated using cell–quest software (Bectopn Dickinson).
Topoisomerase inhibitors cause DNA damage which is related to G1/S and S phase arrest. Cell cycle arrest prevents the replication of damaged DNA. In PC-3 cell line compounds 6 and 8a probably arrested the cell cycle in the G1 phase by inhibition of Cyclin D–Cdk4–Cdks complex, however in the T-24 cell line, they might arrest the cell cycle in the S phase by the inhibition of both Cyclin D–Cdk4–Cdks complex and cyclins E1–E2/Cdk2, which promote G1/S transition.

T-24 cells = assay: Apoptosis determination by annexin V-FITC/PI assay, T-24 cells; details: at IC50, 24 h
Description: Apoptosis was evaluated using Annexin V fluorescein isothiocyanate (FITC) and propidium iodide (PI) using the Annexin V-FITC/PI apoptosis detection kit (Biovision, Mountain View, CA # K101-25). According to the manufacturer’s instructions after staining the cells with annexin V fluorescein (FITC) isothiocyanate. […] Cells were centrifuged and washed once with serum-containing media followed by resuspension in 500 µl of binding buffer. Then 5 µl Annexin V-FITC and 5 µl of (PI […]) were added and incubated for 5 min at room temperature in the dark. Analyses were performed using a flow cytometer (EX = 488 nm: Em = 530 nm) using a FITC signal detector and PI staining by a phycoerythrin emission signal detector.
To verify the ability of compounds 6 and 8a to induce apoptosis, a flow cytometry assay was performed using propidium iodide (PI), and immunofluorescent markers of the protein annexin-V. Dual staining for annexin-V and with PI provides the distinction between viable cells, early apoptotic cells, late apoptotic cells, and necrotic cells. […] While compound 8a induced both early and late apoptosis with 21.16- and 114.90-fold more than the control, respectively, and induced total apoptosis and necrosis with 20.1- and 4.28-fold more than the control, sequentially (Figure 14).

active caspase-3 = assay: Active caspase-3 ELISA in T-24 cells; details: 6 at 5.68 μM, 8a at 3.36 μM; for Caspase-3 conc. (pg/ml* ± SD): means of three experiments
Description: The level of the apoptotic marker caspase-3 was measured using The Invitrogen Caspase-3 (active) Human ELISA Kit. The procedure of the used kit was done according to the manufacturer’s instructions.
Caspase-3 (a key effector enzyme) plays an important role in apoptosis since its activation leads to catalysing specific enzymes responsible for DNA fragmentation, which leads to cell death. Apoptosis induction in T-24 cells by compounds 6 and 8a was investigated via caspase 3, compared to doxorubicin as a reference drug.

Compound | phase of cell cycle arrest (PC-3 cells) | decrease in the percentage of cells at the G2/M phase (PC-3 cells; PC-3 cells, at IC50, 24 h) | increase in the percentage of cells at the G1 phase compared to the control (PC-3 cells; PC-3 cells, at IC50, 24 h) | early apoptosis, fold more than the control (T-24 cells) | late apoptosis, fold more than the control (T-24 cells) | necrosis, fold more than the control (T-24 cells) | total apoptosis, fold more than the control (T-24 cells) | increase in level of active caspase-3 compared to the control (active caspase-3) | Caspase-3 conc. (pg/ml* ± SD) (active caspase-3)
O=C1CC(=O)N(C(=O)CN2CCN(c3cc4c(cc3F)c(=O)c(C(=O)O)cn4C3CC3)CC2)N1 [Compound 6, 1-cyclopropyl-7-(4-(2-(3,5-dioxopyrazolidin-1-yl)-2-oxoethyl)piperazin-1-yl)-6-fluoro-4-oxo-1,4-dihydroquinoline-3-carboxylic acid] | G1-phase cell cycle arrest | 1.5 fold | 1.16 fold | 16.27 fold | 83.38 fold | 6.25 fold | 16.77 fold and 16.8 fold | 5.23 fold | 362.9 ± 8.58 pg/mL
O=C(CN1CCN(c2cc3c(cc2F)c(=O)c(C(=O)O)cn3C2CC2)CC1)NN=C1C(=O)Nc2ccccc21 [Compound 8a, 1-Cyclopropyl-6-fluoro-4-oxo-7-(4-(2-oxo-2-(2-(2-oxoindolin-3-ylidene)hydrazinyl)ethyl)piperazin-1-yl)-1,4-dihydroquinoline-3-carboxylic acid] | G1-phase cell cycle arrest | – | 1.27 fold | 21.16 fold | 114.90 fold | 4.28 fold | 20.1 fold | 7.6 fold | 527.6 ± 8.39 pg/mL
